Measured values taken from patent publication EP0390135A1, “Pyrroloquinoline derivatives, antimicrobial agents using the same and process for preparing the same” (OTSUKA PHARMACEUTICAL CO., LTD., priority 1989, dated 1990).
In brackets after ≈: the same amount, converted by molar mass. Counter-ions that a name gives are not always drawn. Like-named read-outs stand apart in the source and are kept apart here.

Key:
physchem = conditions: water, Ratio of dissolution to water
A.calcoaceticus Ac-54 = test: MIC by agar plate dilution method; format: cell-based
Description: (§1) In order to investigate the in vitro activity of the under-mentioned compounds against various bacteria, the minimal inhibitory concentration (MIC, µg/mℓ) values were determined by the agar plate dilution method (see Chemotherapy, 22, 1126-1128 (1974)]. The results are shown in Table 1.

E.coli NIHJ JC-2 = test: MIC by agar plate dilution method; format: cell-based
Description: as §1

E.facalis ATCC-21212 = test: MIC by agar plate dilution method; format: cell-based; conditions: in vitro
Description: as §1

K.pneumoniae NCTC-9632 = test: MIC by agar plate dilution method; format: cell-based
Description: as §1

M.morganii IID Kono = test: MIC by agar plate dilution method; format: cell-based; conditions: in vitro
Description: as §1

P.aeruginosa ATCC-10145 = test: MIC by agar plate dilution method; format: cell-based
Description: as §1

P.aeruginosa E-2 = test: MIC by agar plate dilution method; format: cell-based
Description: as §1

P.mirabilis ATCC-29906 = test: MIC by agar plate dilution method; format: cell-based
Description: as §1

S.aureus FDA209P = test: MIC by agar plate dilution method; format: cell-based; conditions: in vitro
Description: as §1

S.marcoscons IFO-12648 = test: MIC by agar plate dilution method; format: cell-based; conditions: in vitro
Description: as §1

[1] = Ratio of dissolution to water (water solubility)
[2] = Acinetobacter calcoaceticus, AC54, in vitro, read-out: MIC
[3] = Escherichia coli, NIHJJC2, in vitro, read-out: MIC
[4] = Klebsiella pneumoniae, NCTC9632, in vitro, read-out: MIC
[5] = Morganella morganii, read-out: MIC
[6] = Pseudomonas aeruginosa, ATCC10145, in vitro, read-out: MIC
[7] = Pseudomonas aeruginosa, E2, in vitro, read-out: MIC
[8] = Proteus mirabilis, ATCC29906, in vitro, read-out: MIC
[9] = Staphylococcus aureus, FDA209P, read-out: MIC
[10] = Ratio of dissolution to water, at 20 °C

MIC (A.calcoaceticus Ac-54; [2]) [µg/mL] | MIC (E.coli NIHJ JC-2; [3]) [µg/mL] | MIC (E.facalis ATCC-21212; read-out: MIC) [µg/mL] | MIC (K.pneumoniae NCTC-9632; [4]) [µg/mL] | MIC (M.morganii IID Kono; [5]) [µg/mL] | MIC (P.aeruginosa ATCC-10145; [6]) [µg/mL] | MIC (P.aeruginosa E-2; [7]) [µg/mL] | MIC (P.mirabilis ATCC-29906; [8]) [µg/mL] | MIC (S.aureus FDA209P; [9]) [µg/mL] | MIC (S.marcoscons IFO-12648; read-out: MIC) [µg/mL] | SMILES | other results
– | – | – | – | – | – | – | – | – | – | CC1CN(c2c(F)cc3c(=O)c(C(=O)O)cn4c3c2CC4C)CCN1.Cl (racemic) [Example 10, (±)-8-fluoro-2-methyl-9-(3-methyl-1-piperazinyl)-6-oxo-1,2-dihydro-6H-pyrrolo[3,2,1-ij]quinoline-5-carboxylic acid hydrochloride] | solubility (physchem): 152 mg/mL
– | – | – | – | – | – | – | – | – | – | CC1Cc2c(N3CCN(C)CC3)c(F)cc3c(=O)c(C(=O)O)cn1c23.Cl (racemic) [Reference Example 3, (±)-8-fluoro-2-methyl-9-(4-methyl-1-piperazinyl)-6-oxo-1,2-dihydro-6H-pyrrolo[3,2,1-ij]quinoline-5-carboxylic acid hydrochloride, reference compound] | solubility (physchem): 12 mg/mL
0.2 (≈ 0.579 µM) | 0.1 (≈ 0.29 µM) | 1.56 (≈ 4.52 µM) | 0.1 (≈ 0.29 µM) | 0.1 (≈ 0.29 µM) | 3.13 (≈ 9.06 µM) | 1.56 (≈ 4.52 µM) | 0.39 (≈ 1.13 µM) | 0.2 (≈ 0.579 µM) | 0.1 (≈ 0.29 µM) | CC1Cc2c(N3CCN(C)CC3)c(F)cc3c(=O)c(C(=O)O)cn1c23 (racemic) [Test Compound E, 8-fluoro-2-methyl-9-(4-methyl-1-piperazinyl)-6-oxo-1,2-dihydro-6H-pyrrolo[3,2,1-ij]quinoline-5-carboxylic acid, reference compound] | –
– | – | – | – | – | – | – | – | – | – | CC1Cc2c(N3CCN(C)CC3)c(F)cc3c(=O)c(C(=O)O)cn1c23 (single isomer, unassigned) [Example 7 hydrochloride] | solubility [1, 10]: 230 mg/mL
– | – | – | – | – | – | – | – | – | – | CC1Cc2c(N3CCN(C)CC3)c(F)cc3c(=O)c(C(=O)O)cn1c23 (single isomer, unassigned; (+)) [Example 7, (+)-8-fluoro-2-methyl-9-(4-methyl-1-piperazinyl)-6-oxo-1,2-dihydro-6H-pyrrolo[3,2,1-ij]quinoline-5-carboxylic acid] | MIC (A.calcoaceticus Ac-54; in vitro, listed as A): 0.1 µg/mL (≈ 0.29 µM); MIC (E.coli NIHJ JC-2; in vitro, listed as A): 0.05 µg/mL (≈ 0.145 µM); MIC (E.facalis ATCC-21212; listed as A): 0.78 µg/mL (≈ 2.26 µM); MIC (K.pneumoniae NCTC-9632; in vitro, listed as A): 0.05 µg/mL (≈ 0.145 µM); MIC (M.morganii IID Kono; listed as A): 0.05 µg/mL (≈ 0.145 µM); MIC (P.aeruginosa ATCC-10145; in vitro, listed as A): 1.56 µg/mL (≈ 4.52 µM); MIC (P.aeruginosa E-2; in vitro, listed as A): 0.78 µg/mL (≈ 2.26 µM); MIC (P.mirabilis ATCC-29906; in vitro, listed as A): 0.2 µg/mL (≈ 0.579 µM); MIC (S.aureus FDA209P; listed as A): 0.1 µg/mL (≈ 0.29 µM); MIC (S.marcoscons IFO-12648; listed as A): 0.05 µg/mL (≈ 0.145 µM)
0.39 | 0.05 | 3.13 | 0.05 | 0.012 | 0.39 | 0.39 | 0.1 | 0.2 | 0.1 | CC1CN(c2c(F)cc3c(=O)c(C(=O)O)cn4c3c2CC4C)CCN1.Cl (single isomer, unassigned; (+)) [Example 8, (+)-8-fluoro-2-methyl-9-(3-methyl-1-piperazinyl)-6-oxo-1,2-dihydro-6H-pyrrolo[3,2,1-ij]quinoline-5-carboxylic acid hydrochloride] | Ratio of dissolution to water: 385 mg/mL
0.78 | 0.1 | 6.25 | 0.1 | 0.024 | 0.78 | 0.78 | 0.2 | 0.39 | 0.2 | CC1CN(c2c(Cl)cc3c(=O)c(C(=O)O)cn4c3c2CC4C)CCN1.Cl (single isomer, unassigned; (+)) [Example 11, (+)-8-chloro-2-methyl-9-(3-methyl-1-piperazinyl)-6-oxo-1,2-dihydro-6H-pyrrolo[3,2,1-ij]quinoline-5-carboxylic acid hydrochloride] | solubility (physchem): 231 mg/mL
– | – | – | – | – | – | – | – | – | – | CC1CN(c2c(F)cc3c(=O)c(C(=O)O)cn4c3c2CC4C)CC(C)N1.Cl (single isomer, unassigned; (+)) [Example 12, (+)-8-fluoro-2-methyl-9-(3,5-dimethyl-1-piperazinyl)-6-oxo-1,2-dihydro-6H-pyrrolo[3,2,1-ij]quinoline-5-carboxylic acid hydrochloride] | solubility [1]: 175 mg/mL
– | – | – | – | – | – | – | – | – | – | CC1Cc2c(N3CCC(N)C3)c(F)cc3c(=O)c(C(=O)O)cn1c23.Cl (single isomer, unassigned; (+)) [Example 17 hydrochloride, (+)-8-fluoro-2-methyl-9-(3-amino-1-pyrrolidyl)-6-oxo-1,2-dihydro-6H-pyrrolo[3,2,1-ij]quinoline-5-carboxylic acid hydrochloride] | solubility (physchem): 158 mg/mL
0.39 (≈ 1.18 µM) | 0.05 (≈ 0.151 µM) | 3.13 (≈ 9.45 µM) | 0.05 (≈ 0.151 µM) | 0.024 (≈ 0.0724 µM) | 0.39 (≈ 1.18 µM) | 0.39 (≈ 1.18 µM) | 0.1 (≈ 0.302 µM) | 0.2 (≈ 0.604 µM) | 0.1 (≈ 0.302 µM) | CC1Cc2c(N3CCC(N)C3)c(F)cc3c(=O)c(C(=O)O)cn1c23 (single isomer, unassigned; (+)) [Example 17, (+)-8-fluoro-2-methyl-9-(3-amino-1-pyrrolidinyl)-6-oxo-1,2-dihydro-6H-pyrrolo[3,2,1-ij]quinoline-5-carboxylic acid] | –
– | – | – | – | – | – | – | – | – | – | CCNCC1CCN(c2c(F)cc3c(=O)c(C(=O)O)cn4c3c2CC4C)C1.Cl (single isomer, unassigned; (+)) [Example 18, (+)-8-fluoro-2-methyl-9-[3-(ethylaminomethyl)-1-pyrrolidinyl]-6-oxo-1,2-dihydro-6H-pyrrolo[3,2,1-ij]quinoline-5-carboxylic acid hydrochloride] | solubility [1]: 195 mg/mL
– | – | – | – | – | – | – | – | – | – | CC(C)NCC1CCN(c2c(F)cc3c(=O)c(C(=O)O)cn4c3c2CC4C)C1 (single isomer, unassigned; (+)) [Example 19, (+)-8-fluoro-2-methyl-9-[3-(isopropylaminomethy 1-pyrrolidyl]-6-oxo-1,2-dihydro-6H-pyrrolo[3,2,1-ij]quinoline-5-carboxylic acid hydrochloride] | solubility [1, 10]: 135 mg/mL
– | – | – | – | – | – | – | – | – | – | CC1CN(c2c(F)cc3c(=O)c(C(=O)O)cn4c3c2CC4C)CCN1 (single isomer, unassigned; (+)) [Example 20, (+)-8-fluoro-2-methyl-9-(3-methyl-1-piperazinyl)-6-oxo-1,2-dihydro-6H-pyrrolo[3,2,1-ij]quinoline-5-carboxylic acid] | solubility [1, 10]: 143 mg/mL
– | – | – | – | – | – | – | – | – | – | CC1Cc2c(N3CCN(C)CC3)c(F)cc3c(=O)c(C(=O)O)cn1c23 (single isomer, unassigned; (-)) [Reference Example 1, (-)-8-fluoro-2-methyl-9-(4-methyl-1-piperazinyl)-6-oxo-1,2-dihydro-6H-pyrrolo[3,2,1-ij]quinoline-5-carboxylic acid, reference compound] | MIC (A.calcoaceticus Ac-54; in vitro, listed as F): 3.13 µg/mL (≈ 9.06 µM); MIC (E.coli NIHJ JC-2; in vitro, listed as F): 0.78 µg/mL (≈ 2.26 µM); MIC (E.facalis ATCC-21212; listed as F): 100 µg/mL (≈ 290 µM); MIC (K.pneumoniae NCTC-9632; in vitro, listed as F): 0.78 µg/mL (≈ 2.26 µM); MIC (M.morganii IID Kono; listed as F): 0.78 µg/mL (≈ 2.26 µM); MIC (P.aeruginosa ATCC-10145; in vitro, listed as F): 25 µg/mL (≈ 72.4 µM); MIC (P.aeruginosa E-2; in vitro, listed as F): 12.5 µg/mL (≈ 36.2 µM); MIC (P.mirabilis ATCC-29906; in vitro, listed as F): 3.13 µg/mL (≈ 9.06 µM); MIC (S.aureus FDA209P; listed as F): 3.13 µg/mL (≈ 9.06 µM); MIC (S.marcoscons IFO-12648; listed as F): 0.78 µg/mL (≈ 2.26 µM)
– | – | – | – | – | – | – | – | – | – | CC1CN(c2c(F)cc3c(=O)c(C(=O)O)cn4c3c2CC4C)CCN1.Cl (single isomer, unassigned; (-)) [Reference Example 2, (-)-8-fluoro-2-methyl-9-(3-methyl-1-piperazinyl)-6-oxo-1,2-dihydro-6H-pyrrolo[3,2,1-ij]quinoline-5-carboxylic acid hydrochloride, reference compound] | Ratio of dissolution to water: 167 mg/mL
0.39 (≈ 1.08 µM) | 0.1 (≈ 0.277 µM) | 3.13 (≈ 8.66 µM) | 0.1 (≈ 0.277 µM) | 0.1 (≈ 0.277 µM) | 3.13 (≈ 8.66 µM) | 1.5 (≈ 4.15 µM) | 0.39 (≈ 1.08 µM) | 0.2 (≈ 0.553 µM) | 0.2 (≈ 0.553 µM) | CC1COc2c(N3CCN(C)CC3)c(F)cc3c(=O)c(C(=O)O)cn1c23 (stereo not drawn) [Test Compound G, S-(-)-9-fluoro-3-methyl-10-(4-methyl-1-piperazinyl)-7-oxo-2,3-dihydro-7H-pyrido[1,2,3-de][1,4]benzoxazine-6-carboxylic acid, reference compound] | –
